Converted amounts (≈) assume the structure as drawn.
Tests used:
[1] = Water solubility (sonicated suspension, HPLC); assay type: physicochemical; details: in water; for solubility at 15 min: thermodynamic from solid;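 on all read-outs here: concentration in the clear supernatant quantified by HPLC peak area against a DMSO standard solution of the same compound, corrected for dilution and injection volume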
[2] = Stability to human liver microsomes; assay type: in vitro ADME; details: 1 μM, 37° C., 60 min, pooled human liver microsomes;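 further: parent compound quantified by LC-MS/MS against an internal standard, duplicates averaged, expressed relative to the 0 min sample taken as 100%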
[3] = Stability to mouse liver microsomes; assay type: in vitro ADME; details: 1 μM, 37° C., 60 min, CD-1 mouse liver microsomes;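 further: analyte quantified by LC-MS/MS as ratio to internal standard peak area, mean of duplicates, 60 min value expressed relative to the 0 min level (100%)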
[4] = In vivo pharmacokinetics in mice; details: CD-1 mice, oral, 40 mg/kg; for Cmax / half-life / Kp: mouse; for Cmax / half-life: in vivo, plasma; for half-life: read-out: t½ (h) plasma (converted); for Kp: lung/plasma, read-out: AUC ratio (lung/plasma);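 on all read-outs here: plasma and lung samples quantified by LC-MS/MS, dosing as a suspension in aqueous carboxymethylcellulose with Tween 80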
M. tuberculosis Erdman [5] = assay: In vivo mouse acute TB infection assay; set-up: species or system Mycobacterium tuberculosis; details: BALB/c mice; for In vivo efficacy vs PA-824, Acute: oral 100 mg/kg daily 5 days a week for 3 weeks from day 11 post-infection, ratio of average lung CFU reduction to that with PA-824
M. tuberculosis Erdman [6] = assay: In vivo mouse chronic TB infection assay; set-up: species or system Mycobacterium tuberculosis; details: mice, oral 100 mg/kg, treatment beginning ~70 days after infection

Row | Structure (SMILES) | Solubility [1] [µg/mL] | Microsomes (% remaining, 1 h) Human [2] [%] | Microsomes (% remaining, 1 h) Mouse [3] [%] | AUC lung [4] [µg·h/mL] | Cmax [4] [ng/mL] | melting point | solubility at 15 min [1] [µg/mL] | half-life [4] [h] | Kp [4] | log reductions in CFU (acute assay) (M. tuberculosis Erdman [5]; oral 100 mg/kg, lungs, vs vehicle, 'up to') | log reduction in CFU (chronic assay) (M. tuberculosis Erdman [6]) [log] | In vivo efficacy vs PA-824, Acute (M. tuberculosis Erdman [5]) | In vivo efficacy vs PA-824, Chronic (M. tuberculosis Erdman [6]; ratio of average lung CFU reduction to that with PA-824)
1 | O=[N+]([O-])c1cn2c(n1)OC[C@@H](OCc1ccc(-c3ccc(OC(F)(F)F)cc3)nn1)C2 [Compound 24, (6S)-2-Nitro-6-({6-[4-(trifluoromethoxy)phenyl]-3-pyridazinyl}methoxy)-6,7-dihydro-5H-imidazo[2,1-b][1,3]oxazine] | 6.1 (≈ 13.9 µM) | 94 | 92 | 93.9 | 3560 | 194 °C (dec.) |  |  |  |  |  |  | 
2 | O=[N+]([O-])c1cn2c(n1)OC[C@@H](OCc1ccc(-c3ccc(C(F)(F)F)nc3)cc1F)C2 [Compound 23, (6S)-6-({2-Fluoro-4-[6-(trifluoromethyl)-3-pyridinyl]benzyl}oxy)-2-nitro-6,7-dihydro-5H-imidazo[2,1-b][1,3]oxazine] |  | 96 | 78 | 55.4 | 1560 | 195 to 198 °C | 5.7 (≈ 13 µM) | 4.9 | 2.5 |  |  |  | 
3 | O=[N+]([O-])c1cn2c(n1)OC[C@@H](OCc1ccc(-c3ccc(OC(F)(F)F)c(F)c3)cc1)C2 [Compound 2, (6S)-6-{[3′-Fluoro-4′-(trifluoromethoxy)[1,1′-biphenyl]-4-yl]methoxy}-2-nitro-6,7-dihydro-5H-imidazo[2,1-b][1,3]oxazine] |  | 93 | 86 | >513 | 17100 | 169 to 171 °C | 0.1 (≈ 0.221 µM) | 20.5 |  |  |  |  | 
4 | O=[N+]([O-])c1cn2c(n1)OC[C@@H](OCc1ccc(-c3ccc(OC(F)(F)F)cc3Cl)cc1)C2 [Compound 1, (6S)-6-{[2′-Chloro-4′-(trifluoromethoxy)[1,1′-biphenyl]-4-yl]methoxy}-2-nitro-6,7-dihydro-5H-imidazo[2,1-b][1,3]oxazine] |  | 91 | 86 | 3363 | 6800 | 80 to 82 °C | 0.66 (≈ 1.4 µM) | 19.9 | 17 |  |  |  | 
5 | O=C(O[C@@H]1COc2nc([N+](=O)[O-])cn2C1)N1CCN(c2ccc(OC(F)(F)F)cc2)CC1 [Compound 20, (6S)-2-Nitro-6,7-dihydro-5H-imidazo[2,1-b][1,3]oxazin-6-yl 4-[4-(trifluoromethoxy)phenyl]-1-piperazinecarboxylate] |  | 82 | 85 | 169 |  | 166 to 168 °C | 17 (≈ 37.2 µM) |  |  |  |  |  | 
6 | O=[N+]([O-])c1cn2c(n1)OC[C@@H](OCc1ccc(-c3ccc(OC(F)(F)F)c(F)c3)cn1)C2 [Compound 22, (6S)-6-({5-[3-Fluoro-4-(trifluoromethoxy)phenyl]-2-pyridinyl}methoxy)-2-nitro-6,7-dihydro-5H-imidazo[2,1-b][1,3]oxazine] | 30 (≈ 66 µM) | 97 | 86 | 155 |  | 182 to 184 °C |  |  | 1.1 |  |  |  | 
7 | O=[N+]([O-])c1cn2c(n1)OC[C@@H](OCc1ccc(OC(F)(F)F)cc1)C2 [PA-824, reference compound] |  | 82 |  | 296 | 5500 |  |  | 4.2 | 3.8 | 2.5-3 log | ~2 |  | 
8 | O=[N+]([O-])c1cn2c(n1)OC[C@@H](OCc1cnc(-c3ccc(OC(F)(F)F)cc3)nc1)C2 [Compound 16, (6S)-2-Nitro-6-({2-[4-(trifluoromethoxy)phenyl]-5-pyrimidinyl}methoxy)-6,7-dihydro-5H-imidazo[2,1-b][1,3]oxazine] | 2.1 (≈ 4.8 µM) | 96 | 87 | 131 | 1160 | 227 to 230 °C |  | 23.1 |  |  |  |  | 
9 | O=[N+]([O-])c1cn2c(n1)OC[C@@H](OCc1ccc(-c3ccc(OC(F)(F)F)cc3)cc1F)C2 [Compound 12, (6S)-6-{[3-Fluoro-4′-(trifluoromethoxy)[1,1′-biphenyl]-4-yl]methoxy}-2-nitro-6,7-dihydro-5H-imidazo[2,1-b][1,3]oxazine] |  | 93 | 85 | 549 |  | 160 to 162 °C | 1.4 (≈ 3.09 µM) | 22 | 2.7 |  |  | 33 | 
10 | O=[N+]([O-])c1cn2c(n1)OC[C@@H](OCc1ccc(-c3ccc(OC(F)(F)F)c(Cl)c3)nc1)C2 [Compound 28, (6S)-6-({6-[3-Chloro-4-(trifluoromethoxy)phenyl]-3-pyridinyl}methoxy)-2-nitro-6,7-dihydro-5H-imidazo[2,1-b][1,3]oxazine] | 0.18 (≈ 0.382 µM) | 87 | 77 | 284 | 2890 | 169 to 171 °C |  | 21.7 |  |  |  |  | 
11 | O=[N+]([O-])c1cn2c(n1)OC[C@@H](OCc1ccc(-c3ccc(C(F)(F)F)cn3)cc1)C2 [Compound 8, (6S)-2-Nitro-6-({4-[5-(trifluoromethyl)-2-pyridinyl]benzyl}oxy)-6,7-dihydro-5H-imidazo[2,1-b][1,3]oxazine] | 0.20 (≈ 0.476 µM) | 93 | 90 | 67.3 |  | 252 to 254 °C |  |  | 3.3 |  |  |  | 
12 | Cn1nc(-c2ccc(OC(F)(F)F)cc2)cc1CO[C@@H]1COc2nc([N+](=O)[O-])cn2C1 [Compound 11, (6S)-6-({1-Methyl-3-[4-(trifluoromethoxy)phenyl]-1H-pyrazol-5-yl}methoxy)-2-nitro-6,7-dihydro-5H-imidazo[2,1-b][1,3]oxazine] |  | 86 | 81 | 92.4 | 1660 |  | 5.3 (≈ 12.1 µM) | 6.6 | 4.7 |  |  |  | 0.9
13 | O=[N+]([O-])c1cn2c(n1)OC[C@@H](OCC#Cc1ccc(-c3ccc(OC(F)(F)F)cc3)cc1)C2 [Compound 30, (6S)-2-Nitro-6-({3-[4′-(trifluoromethoxy)[1,1′-biphenyl]-4-yl]-2-propynyl}oxy)-6,7-dihydro-5H-imidazo[2,1-b][1,3]oxazine] | 0.07 (≈ 0.152 µM) | 93 | 85 | 13.6 |  | 192 to 194 °C |  |  | 1.4 |  |  | 89 | 

Reference: patent US9198913B2, “Nitroimidazooxazines and their uses in anti-tubercular therapy” (priority 2009, dated 2015)
